# Measurements taken from patent publication US20130165440A1, “JAK1 Inhibitors” (EXELIXIS, INC., priority 2010, published 2013).
# Target: T1, recombinant JAK1 enzyme (Homo sapiens, UniProt P23458)
# T1 construct: 8 nM of recombinant JAK1 enzyme (Insect expressed: V866-K1155); host or cells: insect cells
# Assay: JAK1 Kinase Assay (luciferase-luciferin-coupled chemiluminescence, ATP consumption)
# Assay type: biochemical
# Conditions: 8 nM JAK1 (V866-K1155), 30 μM IRS-1 peptide (Y608), 2 μM ATP, 2 hours ambient temperature, KinaseGlo; read-out: JAK1 IRS-1tide Chemilum (IC50)
# Protocol: JAK1 Kinase Assay Used to Test Compounds
# JAK1 Kinase activity was measured as the percent of ATP consumed following the kinase reaction using luciferase-luciferin-coupled chemiluminescence. The reaction was conducted in white medium binding 384-well microtiter plates. The kinase reaction were initiated by combining test compounds, 8 nM of recombinant JAK1 enzyme (Insect expressed: V866-K1155), 30 μM of IRS-1 peptide (Y608) and 2 μM ATP in buffer containing 20 mM Hepes (pH 7.5), 10 mM MgCl2, 0.01% Brij, 5% glycerol and 1 mM DTT in a 20 μL volume. The reaction mixture was incubated at ambient temperature for 2 hours. Following the kinase reaction, a 20 μL aliquot of KinaseGlo was added to stop the reaction and measure remaining ATP via detection of chemiluminescence using the Envison reader. Total ATP consumption was limited to 25-60%.
# T1 sequence (P23458 865-1154 limits assumed): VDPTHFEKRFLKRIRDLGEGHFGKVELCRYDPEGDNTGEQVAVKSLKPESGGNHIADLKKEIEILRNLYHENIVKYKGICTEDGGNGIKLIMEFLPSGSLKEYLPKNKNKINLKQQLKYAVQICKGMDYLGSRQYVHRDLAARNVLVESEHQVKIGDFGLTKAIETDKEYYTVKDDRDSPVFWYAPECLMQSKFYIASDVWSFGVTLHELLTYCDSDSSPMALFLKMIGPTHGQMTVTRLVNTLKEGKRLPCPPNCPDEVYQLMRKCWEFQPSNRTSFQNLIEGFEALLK
row,IC50,SMILES
1,2000 to 30000 nM,"O=C1CCCN1c1ccc(-c2nnc(Nc3cc(C(F)(F)F)cc(C(F)(F)F)c3)c3ccccc23)cc1 [Compound 48, 1-[4-(4-{[3,5-bis(trifluoromethyl)phenyl]amino}phthalazin-1-yl)phenyl]pyrrolidin-2-one]"
2,150 to 500 nM,"COC(=O)c1ccc(-c2nnc(Nc3cccc(Cl)c3)c3ccccc23)cc1 [Compound 16, methyl 4-{4-[(3-chlorophenyl)amino]phthalazin-1-yl}benzoate]"
3,500 to 1000 nM,"COC(=O)c1ccc(-c2nnc(Nc3ccc(Cl)c(C(F)(F)F)c3)c3ccccc23)cc1 [Compound 24, methyl 4-(4-{[4-chloro-3-(trifluoromethyl)phenyl]amino}phthalazin-1-yl)benzoate]"
4,≤ 150 nM,"O=C1NCCN1c1ccc(-c2nnc(Nc3cc(C(F)(F)F)cc(C(F)(F)F)c3)c3ccccc23)cc1 [Compound 23, 1-[4-(4-{[3,5-bis(trifluoromethyl)phenyl]amino}phthalazin-1-yl)phenyl]imidazolidin-2-one]"
5,1000 to 2000 nM,COC(=O)c1ccc(-c2nnc(Nc3ccc(Cl)cc3)c3ccccc23)cc1 [Compound 26]
6,1000 to 2000 nM,"NC(=O)c1ccc(-c2nnc(Nc3cc(C(F)(F)F)cc(C(F)(F)F)c3)c3ccccc23)cc1 [Compound 9, 4-(4-{[3,5-bis(trifluoromethyl)phenyl]amino}phthalazin-1-yl)benzamide]"
7,≤ 150 nM,"CCc1cc(Nc2nnc(-c3ccc(C(=O)OC)cc3)c3ccccc23)cc(C(F)(F)F)c1 [Compound 19, methyl 4-(4-{[3-ethyl-5-(trifluoromethyl)phenyl]amino}phthalazin-1-yl)benzoate]"
8,150 to 500 nM,"COC(=O)c1ccc(-c2nnc(Nc3cc(F)cc(C(F)(F)F)c3)c3ccccc23)cc1 [Compound 35, methyl 4-(4-{[3-fluoro-5-(trifluoromethyl)phenyl]amino}phthalazin-1-yl)benzoate]"
9,2000 to 30000 nM,"CNc1nnc(-c2ccc(-c3nnc(Nc4cc(C(F)(F)F)cc(C(F)(F)F)c4)c4ccccc34)cc2)s1 [Compound 1, N-[3,5-bis(trifluoromethyl)phenyl]-4-{4-[5-(methylamino)-1,3,4-thiadiazol-2-yl]phenyl}phthalazin-1-amine]"
10,150 to 500 nM,"Cc1n[nH]c2cc(-c3nnc(Nc4cc(C(F)(F)F)cc(C(F)(F)F)c4)c4ccccc34)ccc12 [Compound 56, N-[3,5-bis(trifluoromethyl)phenyl]-4-(3-methyl-1H-indazol-6-yl)phthalazin-1-amine]"
11,150 to 500 nM,"COC(=O)c1ccc(-c2nnc(Nc3cc(C)cc(Br)c3)c3ccccc23)cc1 [Compound 59, methyl 4-{4-[(3-bromo-5-methylphenyl)amino]phthalazin-1-yl}benzoate]"
12,2000 to 30000 nM,"O=Cc1ccc(-c2nnc(Nc3cc(C(F)(F)F)cc(C(F)(F)F)c3)c3ccccc23)cc1 [Compound 18, 4-(4-{[3,5-bis(trifluoromethyl)phenyl]amino}phthalazin-1-yl)benzaldehyde]"
13,150 to 500 nM,"COC(=O)c1ccc(-c2nnc(Nc3cccc(C(C)C)c3)c3ccccc23)cc1 [Compound 62, methyl 4-(4-{[3-(1-methylethyl)phenyl]amino}phthalazin-1-yl)benzoate]"
14,150 to 500 nM,"COC(=O)c1ccc(-c2nnc(Nc3cccc(OC(F)(F)F)c3)c3ccccc23)cc1 [Compound 43, methyl 4-[4-({3-[(trifluoromethyl)oxy]phenyl}amino)phthalazin-1-yl]benzoate]"
15,≤ 150 nM,"COC(=O)c1ccc(-c2nnc(Nc3cccc(C(F)(F)F)c3)c3ccccc23)cc1 [Compound 58, methyl 4-(4-{[3-(trifluoromethyl)phenyl]amino}phthalazin-1-yl)benzoate]"
16,2000 to 30000 nM,"COC(=O)c1ccc(-c2nnc(Nc3cc(C(F)(F)F)cc(C(F)(F)F)c3)c3ccccc23)s1 [Compound 17, methyl 5-(4-{[3,5-bis(trifluoromethyl)phenyl]amino}phthalazin-1-yl)thiophene-2-carboxylate]"
17,2000 to 30000 nM,"CC(=O)c1cccc(-c2nnc(Nc3cc(C(F)(F)F)cc(C(F)(F)F)c3)c3ccccc23)c1 [Compound 50, 1-[3-(4-{[3,5-bis(trifluoromethyl)phenyl]amino}phthalazin-1-yl)phenyl]ethanone]"
18,150 to 500 nM,"CNC(=O)c1ccc(-c2nnc(Nc3cc(C(F)(F)F)cc(C(F)(F)F)c3)c3ccccc23)cc1 [Compound 55, 4-(4-{[3,5-bis(trifluoromethyl)phenyl]amino}phthalazin-1-yl)-N-methylbenzamide]"
